In publication PMC10518717, “High-Throughput Screening and Proteomic Characterization of Compounds Targeting Myeloid-Derived Suppressor Cells” (Molecular & Cellular Proteomics : MCP, 2023):

Key:
NUP-MDSC cell lysate [1] = assay: Solvent-induced protein precipitation profiling, proteome-wide; format: binding, mouse; conditions: for log2 FC cmpd2_26uM/cmpd3_26uM: soluble fraction, 26 uM
Protocol: (§1) NUP-MDSCs were differentiated as described above, washed twice with PBS, resuspended in lysis buffer (PBS, 0.4% IGEPAL CA-630, 1× Halt Protease-Inhibitor Cocktail (Thermo Fisher Scientific)), and subjected to three freeze-thaw cycles. The lysate was cleared by centrifugation for 30 min at 18,000g and 4 °C. The soluble fraction was diluted to 4 mg/ml and allowed to warm up to room temperature. Equal volumes of lysate were treated in triplicates with 100 x compound stock solutions (in DMSO) or DMSO for 15 min at room temperature (final concentrations: cmpd 2: 7.8 μM (3xEC50) and 26 μM (10xEC50), cmpd 3: 10 μM and 26 μM). Similar to a previous study ([46]), each sample was divided into eight aliquots to be denatured using different concentrations (8%, 10%, 12%, 14%, 16%, 18%, 20%, 22%) of acetone:ethanol:acetic acid (50:50:0.1) in water for 20 min at 37 °C with vigorous shaking. Aggregated proteins were separated by centrifugation for 45 min at 4 °C and 3900g. Next, equal amounts of the soluble fraction were pooled for subsequent proteomic analysis.
(§2) Methanol was added to 100 μg of the pooled supernatants to a final concentration of 70% and further processed according to the R2P1 protocol ([47]), with tryptic digestion performed in 50 mM Hepes (pH 8.5). Elution fractions were combined and dried by vacuum centrifugation. Dried samples were resuspended in deionized water, and TMT labeling was performed according to Zecha et al. ([35]). All 15 samples (5 treatment conditions in triplicates) were labeled with one TMTpro plex. Next, equal amounts were pooled and desalted by C18 solid-phase extraction cartridges (Sep-Pak Vac 1 cc C18 Cartridges, Waters Corp). Desalted peptides were chromatographically separated via basic reversed phase chromatography as previously described ([36]) into 24 fractions, dried down, and stored at −20 °C until further analysis.
(§3) Peptides were analyzed via LC-MS/MS on a Vanquish Neo UHPLC coupled to an Orbitrap Eclipse Tribrid mass spectrometer (Thermo Fisher Scientific). […] The mass spectrometer was operated in data-dependent mode and positive ionization mode. Samples were measured, employing a MS3 method with real-time search. […] Iontrap-MS2 spectra for peptide identification were acquired using HCD fragmentation with 35% NCE, an isolation window of 0.7 m/z, an AGC target value of 5e4 charges, and a maxIT of 35 ms. To obtain quantitative information on TMT reporter ions, each peptide precursor was fragmented again as for MS2 analysis followed by synchronous selection of the up to 10 most intense peptide fragments in the iontrap ([37]) and further fragmentation via HCD using an NCE of 55%. For the MS3 scan, real-time search was enabled to only trigger a MS3 scan for peptides that are TMT-labeled and can be identified (searched against a mouse database, same as used for maxquant processing). The MS3 scan was recorded in the OT at 30,000 resolution (scan range 110–500 m/z, isolation window of 0.7 m/z, AGC of 2e4 charges, maxIT of 120 ms). The cycle time was set to 3 s, and the dynamic exclusion lasted for 60 s.
(§4) Raw files were searched with Maxquant (v. 2.0.3.0) against the mouse reference proteome (UP000000589, canonical, download 10/2019, 55,029 entries) with standard settings for reporter ion MS3 unless described otherwise ([39]). Isotope impurities of the TMT lot were specified to allow MaxQuant the automated correction of TMT intensities. […] Trypsin/P was specified as the proteolytic enzyme with up to two missed cleavage sites allowed. […]

NUP-MDSC cell lysate [2] = target: T1, NUP-MDSC cell lysate (Mus musculus, UniProt P59644); assay: as above; format: binding; conditions: protein Inpp5j; soluble fraction; 26 uM
T1 construct: endogenous in cells; host or cells: mouse NUP-MDSC (lysate)
T1 sequence (P59644 1-1003): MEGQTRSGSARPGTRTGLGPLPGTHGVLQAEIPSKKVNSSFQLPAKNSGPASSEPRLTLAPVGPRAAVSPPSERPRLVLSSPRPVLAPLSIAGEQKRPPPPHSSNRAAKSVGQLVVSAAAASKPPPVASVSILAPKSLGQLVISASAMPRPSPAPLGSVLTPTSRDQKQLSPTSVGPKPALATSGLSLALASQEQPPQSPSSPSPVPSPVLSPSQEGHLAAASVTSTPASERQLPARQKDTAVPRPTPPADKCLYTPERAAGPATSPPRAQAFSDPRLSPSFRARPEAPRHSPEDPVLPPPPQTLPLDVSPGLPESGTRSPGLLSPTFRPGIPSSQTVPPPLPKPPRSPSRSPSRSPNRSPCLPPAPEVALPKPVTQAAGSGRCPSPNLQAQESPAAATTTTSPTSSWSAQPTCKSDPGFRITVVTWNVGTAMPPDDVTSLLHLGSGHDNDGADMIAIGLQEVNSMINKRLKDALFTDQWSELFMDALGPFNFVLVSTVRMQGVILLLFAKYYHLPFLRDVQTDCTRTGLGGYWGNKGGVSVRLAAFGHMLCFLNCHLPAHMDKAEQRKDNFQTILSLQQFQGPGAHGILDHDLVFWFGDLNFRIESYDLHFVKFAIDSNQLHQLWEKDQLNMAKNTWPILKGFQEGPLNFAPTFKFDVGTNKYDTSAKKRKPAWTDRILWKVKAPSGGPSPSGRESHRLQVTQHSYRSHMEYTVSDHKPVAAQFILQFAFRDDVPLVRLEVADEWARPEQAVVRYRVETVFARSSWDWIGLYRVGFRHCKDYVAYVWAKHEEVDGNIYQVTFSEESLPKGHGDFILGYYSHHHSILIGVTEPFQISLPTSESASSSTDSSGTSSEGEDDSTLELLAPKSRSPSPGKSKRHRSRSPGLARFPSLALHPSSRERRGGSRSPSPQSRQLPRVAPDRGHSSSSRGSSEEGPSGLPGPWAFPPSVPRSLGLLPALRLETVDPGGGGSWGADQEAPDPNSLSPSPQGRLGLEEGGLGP
Protocol: as §1, §2, §3, §4

- log2 FC cmpd2_26uM/cmpd3_26uM (NUP-MDSC cell lysate [2]): 0.07
SMILES: CCOC(=O)c1nnn(-c2nn3nnnc3c3ccccc23)c1C [compound 2]
- stabilization of proteins against solvent-induced aggregation (NUP-MDSC cell lysate [1]; 7.8 μM and 26 μM, vs compound 3): significant stabilization of several proteins
- log2 FC cmpd2_26uM/cmpd3_26uM (NUP-MDSC cell lysate [1]; protein Magohb;Magoh): 0.25
- log2 FC cmpd2_26uM/cmpd3_26uM (NUP-MDSC cell lysate [1]; protein Srcap): -0.12
